Results: patent publication US11352382B2, “Mito-lonidamine, compositions and methods of use” (THE MEDICAL COLLEGE OF WISCONSIN, INC., priority 2018, dated 2022)
Entries after “also recorded” stand apart in the source; their conditions may differ.

Columns and labels:
[1] = system: H2030 and H2030BrM3 cells; assay: Autophagy and mitophagy markers in cell lysates, MDC staining; type: cell-based, human
Procedure: Mito-LON induces autophagic cell death in human lung cancer cell lines and lung-derived brain metastatic lines. To investigate potential mechanisms underlying Mito-LON's induction of cancer cell death that result from its inhibition of mitochondrial respiration and induction of ROS, we analyzed lysates of cells treated with Mito-LON [2.0 μM] for 0, 6, 24 and 48 h. Lysates were probed for proteins targeting energetics, apoptosis and autophagy, including selective mitophagy markers. Our data (FIG. 19) show Mito-LON treatment [2.0 μM] modulates key autophagy proteins, including specific mitophagy receptors, adaptor proteins and energy sensing molecules in H2030 lung cancer cells and the corresponding brain metastatic line (H2030BrM3). LC3, microtubule-associated protein light chain 3, is critical for cargo recruitment. The LC3 precursor is modified via an ubiquitination-like system generating soluble LC3-I, which is further modified to LC3-II, a membrane-bound phospholipid conjugate upon autophagy induction. LC3-II integrates into the autophagosome membrane and is considered a reliable early marker of autophagy induction. Mito-LON treatment (FIG. 19A) increased levels of LC3-II 1.9 to 4.4-fold across cell lines, with sustained modulation through 48 h. The LC3-interacting region (LIR) serves as a mechanistic basis for selective autophagy, including mitophagy which specifically targets degradation of damaged mitochondria via engagement of adaptor proteins (p62, NBR1, OPTN, BNIP3L). We evaluated the effects of Mito-LON on ubiquitin-binding mitophagy receptors (p62, NDP52, NBR1) which also indicate autophagic flux versus potential impairment of autophagosome turnover. […] Changes were consistently bimodal in Mito-LON treated H2030 cells, potentially due to P62's dual role in mitophagy, both in clustering of mitochondria as well as downstream degradation. […] PINK1 was included as an indicator of PINK1-Parkin dependent mitophagy. Basal levels of PINK1 are normally low with increases due to mitochondrial depolarization, damage and ATP alterations, as noted in both cell lines. Beclin1 (BECN1), an autophagy regulator and potential tumor suppressor gene product in multiple cancers, including NSCLC.
Thus, autophagy induction in the lung derived brain metastatic line may be BECN1-independent. […] NRF2, a major regulator of cellular stress responses, was not detectable in either cell line. FIG. 19B further supports autophagy induction by Mito-LON. […] Specifically, Mito-LON alters phosphorylation events and activating partners in parallel. As an example, P-P70S6K^Thr389 phosphorylates mTOR^Ser2448; both reduced in Mito-LON treated cells. Similarly, ULK is activated by AMPK, and both phosphoproteins are decreased by Mito-LON, as is P-PTEN.

mitochondrial Complex I = assay: Mitochondrial complex I activity (OCR) in permeabilized H2030BrM3 cells after 24 h pretreatment; type: cell-based, human
Description: (§1) LON and Mito-LON inhibit mitochondrial complex I activity. Mito-LON inhibited cellular respiration (oxygen consumption rate, OCR) at >100-fold lower concentration than LON in intact lung cancer cells (FIG. 9). Both basal respiration and the response to mitochondrial stressors (oligomycin, dinitrophenol) were diminished by Mito-LON (not shown). To investigate the mechanism of mitochondrial inhibition, we measured the activity of mitochondrial complexes in H2030BrM3 cells (NSCLC cell line). The cell membrane was permeabilized, and OCR was measured upon addition of substrates and inhibitors of mitochondrial complexes I-IV (FIG. 9A). These studies established the optimal use of permeabilized cells for complex activity assays.^54 Next, cells were pretreated with LON and Mito-LON for 24 h and experiments performed as in FIG. 9A. […] We hypothesize that inhibition of mitochondrial complexes I and II is the predominant mechanism for antiproliferative effects of Mito-LON on lung cancer cells.

cytosolic Prx1 = assay: Redox status of cytosolic peroxiredoxin; type: cell-based, human; settings: lung cancer cells
Description: (§2) Inhibition of mitochondrial respiration results in increased O2^⋅− and other oxidants.

H2030BrM3 cells [2] = assay: Cellular ROS production, HPLC-based analysis of hydroethidine (HE) oxidation; type: cell-based, human; settings: for ROS generation in lung cancer cells: concentration not given
Description: as §2

mitochondrial Prx3 = assay: Redox status of mitochondrial peroxiredoxin; type: cell-based, human; settings: lung cancer cells
Description: as §2

mitochondrial complex II = biological target: T1, mitochondrial complex II (Homo sapiens, UniProt O14521+P21912+P31040+Q99643); assay: Mitochondrial complex II activity (OCR) in permeabilized H2030BrM3 cells after 24 h pretreatment; type: cell-based
T1 construct: we measured the activity of mitochondrial complexes in H2030BrM3 cells (NSCLC cell line); endogenous in cells; host or cells: H2030BrM3
Description: as §1

H2030BrM3 cells [3] = assay: Cell proliferation, IncuCyte Live-Cell Imaging Analyzer (cell confluence); type: cell-based; settings: Homo sapiens, H2030-BrM3, read-out: IC50, cell proliferation
Procedure: In contrast, Mito-LON (1.2-2.7 μM) targets mitochondrial complexes I and II (FIG. 9); its mitochondrial effects are supported by the compartment-selective oxidation of mitochondrial Prx3 (FIG. 13). The anti-proliferative effects of Mito-LON and LON were compared in H2030BrM3 cells.

Pancreatic cancer cells = assay: Anti-proliferative effects in pancreatic cancer cells (number of cells over time); type: cell-based, human
Procedure: Pancreatic cancer cells were treated with either LND or Mito-LND at varying concentrations and the number of cells was assayed over time.

[4] = system: luciferase-expressing H2030BrM3 cells in Nod/Scid mice; assay: Lung cancer brain metastasis model, intra-cardiac injection, bioluminescence; type: in vivo, mouse; settings: 7.5 μmol/kg oral gavage
Procedure: Mito-LON inhibits lung cancer brain metastasis in Nod/Scid mice. Preliminary experiments assessed the effect of Mito-LON, and its enhanced potency vs. LON, on brain metastasis in Nod/Scid mice in which luciferase-expressing H2030BrM3 cells were injected via intra-cardiac insertion. To ensure the accuracy of injection and precision in the quantity of the cells injected, we used high-resolution echocardiography to guide the needle into the left ventricle. In FIG. 25A, the needle's positioning is clearly discernable. Mice were imaged for firefly luciferase expression (150 μg/g D-luciferin) using an IVIS 100 imaging system at multiple time points post-injection. Regions of interest were defined manually over the brain, and LivingImage and Igor image analysis software were used to determine total photon flux. One day after engrafting the H2030BrM3 cells in arterial circulation (FIG. 19A), LON or Mito-LON (7.5 μmol/kg each) were administered by oral gavage, tumor growth was monitored by bioluminescence, and ex vivo GFP expression and H&E staining were determined at the end point. H2030BrM3 cells rapidly colonized in the cerebrum and cerebellum (FIG. 25B).

T1 sequence (P31040 43-664): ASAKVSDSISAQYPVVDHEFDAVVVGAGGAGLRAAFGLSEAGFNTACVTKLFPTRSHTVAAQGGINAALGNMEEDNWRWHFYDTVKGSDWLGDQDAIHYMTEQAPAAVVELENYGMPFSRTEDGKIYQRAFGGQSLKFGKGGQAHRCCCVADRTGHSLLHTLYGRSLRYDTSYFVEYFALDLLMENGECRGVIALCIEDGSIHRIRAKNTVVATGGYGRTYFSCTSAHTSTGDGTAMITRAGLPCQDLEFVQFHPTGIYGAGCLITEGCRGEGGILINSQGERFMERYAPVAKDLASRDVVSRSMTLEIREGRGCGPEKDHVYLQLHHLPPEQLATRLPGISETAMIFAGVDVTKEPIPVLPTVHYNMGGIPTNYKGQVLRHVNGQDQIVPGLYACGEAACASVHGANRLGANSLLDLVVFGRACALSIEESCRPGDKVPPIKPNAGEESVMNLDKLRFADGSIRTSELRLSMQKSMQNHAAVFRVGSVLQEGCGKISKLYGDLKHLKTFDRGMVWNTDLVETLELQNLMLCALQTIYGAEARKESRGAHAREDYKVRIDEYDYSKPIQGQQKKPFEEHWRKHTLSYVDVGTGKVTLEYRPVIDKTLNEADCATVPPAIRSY
T1 sequence (P21912 29-280): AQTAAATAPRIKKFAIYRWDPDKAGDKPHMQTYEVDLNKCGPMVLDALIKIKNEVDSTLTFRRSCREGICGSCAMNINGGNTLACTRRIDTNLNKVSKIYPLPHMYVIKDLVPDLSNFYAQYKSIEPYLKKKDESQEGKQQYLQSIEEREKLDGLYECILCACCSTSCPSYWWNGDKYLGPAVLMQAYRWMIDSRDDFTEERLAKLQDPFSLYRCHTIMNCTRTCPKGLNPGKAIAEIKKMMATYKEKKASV
T1 sequence (Q99643 30-169): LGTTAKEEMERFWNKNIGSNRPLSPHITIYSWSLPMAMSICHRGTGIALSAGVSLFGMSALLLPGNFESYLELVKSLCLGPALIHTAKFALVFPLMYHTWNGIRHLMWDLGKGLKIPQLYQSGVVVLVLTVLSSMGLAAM
T1 sequence (O14521 57-159): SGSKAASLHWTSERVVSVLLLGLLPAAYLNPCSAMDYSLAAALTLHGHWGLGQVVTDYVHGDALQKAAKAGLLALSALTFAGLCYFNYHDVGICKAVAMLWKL

O=C(NCCCCCCCCCC[P+](c1ccccc1)(c1ccccc1)c1ccccc1)c1nn(Cc2ccc(Cl)cc2Cl)c2ccccc12 [Mito-LON, Mito10-lonidamine]
NDP52 ([1]; 2.0 μM): paralleled P62 changes
Beclin-1 levels ([1]; 2.0 μM, H2030 and H2030-BrM3 cells): increased Beclin-1 levels in H2030 cells but not in H2030-BrM3 cells
autophagic vacuolization (bright field) ([1]; 2.0 μM, H2030 cells): markedly increased vacuolization
monodansylcadaverine (MDC) staining ([1]; 2.0 μM, H2030 cells): stained positive for MDC
P62 ([1]; 2.0 μM, both cell lines): modulated P62 in both cell lines
autophagy-initiating energy-sensing proteins of the AKT/mTOR signaling pathway ([1]; FIG. 19C): deactivates
RAB7 levels ([1]; H2030BrM3 cells): increased levels of RAB7
fold more potent than LON for complex I (mitochondrial Complex I; 24 h pretreatment, FIG. 9B): 370 fold
Ki (mitochondrial Complex I; FIG. 9): 1200 nM
IC50 (mitochondrial Complex I; H2030BrM3 lung cancer cells, FIG. 9, read-out: IC50, respiratory complex I): 1200 nM
effect on cytosolic Prx1 (cytosolic Prx1): without significant effect
intracellular levels of 2-OH-E+ (superoxide-specific product of HE oxidation) (H2030BrM3 cells [2]; 0.2 μM, H2030BrM3 cells): increase
formation of diethidium (E+-E+) (H2030BrM3 cells [2]; H2030BrM3 cells): strongly induced
ROS generation in lung cancer cells (H2030BrM3 cells [2]): stimulates ROS generation; also recorded: induced ROS generation in mitochondria; also recorded: enhanced the formation of 2-hydroxyethidium; also recorded: increased ROS generation
ROS generation in lung cancer cells (H2030BrM3 cells [2]; listed as Mito-LDN): stimulates ROS generation
oxidation of mitochondrial Prx3 (mitochondrial Prx3): oxidizes mitochondrial Prx3; also recorded: pronounced oxidation
oxidation of mitochondrial Prx3 (mitochondrial Prx3; listed as Mito-LDN): oxidizes mitochondrial Prx3
fold more potent than LON for complex II (mitochondrial complex II; 24 h pretreatment, FIG. 9B): 144 fold
Ki (mitochondrial complex II; FIG. 9): 2700 nM
IC50 (mitochondrial complex II; H2030BrM3 lung cancer cells, FIG. 9, read-out: IC50, respiratory complex II): 2700 nM
IC50 (H2030BrM3 cells [3]): 700 nM
IC50 (Pancreatic cancer cells; Homo sapiens, Pancreatic cancer cell, read-out: IC50, inhibiting the proliferation of cancer cells): 640 nM
fold more effective than LND in anti-proliferative effects (Pancreatic cancer cells; pancreatic cancer cells, FIG. 6): ~500 fold
inhibition of brain metastasis of lung cancer cells [4]: significant efficacy in inhibiting brain metastasis
